25 compounds from patent US20240066027A1 (DOMAIN THERAPEUTICS, priority 2020, published 2024) can be followed below.

Counter-ions that a name gives are not always drawn. Where only a bound is given, the exact number is not on record here.

The target in the assay is T1, human PAR-2 (hPAR-2) receptor expressed in HEK-293 T cells in an endogenous manner (Homo sapiens, UniProt P55085).
T1 construct: human PAR-2 (hPAR-2) receptor expressed in HEK-293 T cells in an endogenous manner; endogenous in cells; host or cells: HEK-293 T cells
T1 sequence (P55085 26-397): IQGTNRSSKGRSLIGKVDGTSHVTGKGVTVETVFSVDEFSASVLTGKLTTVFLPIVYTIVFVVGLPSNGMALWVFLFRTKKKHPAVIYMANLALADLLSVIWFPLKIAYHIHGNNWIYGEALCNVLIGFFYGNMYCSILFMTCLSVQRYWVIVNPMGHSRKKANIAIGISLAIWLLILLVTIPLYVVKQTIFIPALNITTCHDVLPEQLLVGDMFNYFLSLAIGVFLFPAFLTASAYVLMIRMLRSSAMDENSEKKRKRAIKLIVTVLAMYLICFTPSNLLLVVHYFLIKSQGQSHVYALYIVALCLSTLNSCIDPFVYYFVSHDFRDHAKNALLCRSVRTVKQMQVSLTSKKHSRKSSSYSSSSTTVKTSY
Description: In vitro human PAR-2 functional antagonist activity using calcium assays (Fluo4AM, FLIPR Tetra). Type of assay: cell-based. The note with it: HEK-293 T cells stimulated by an EC80 of the 2-Furoyl-LIGRLO-NH2 peptide after 10 min incubation with compound; 20 concentrations, duplicate, two independent experiments. An outline of the steps:
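Antagonist activity was taken as the decrease in the calcium response to an EC80 of 2-Furoyl-LIGRLO-NH2, measured over 5 min. The agonist was added after a 10 min compound-alone step on the same plate. The HEK-293 T cells express PAR-2 endogenously and were loaded with 1 μM Fluo4AM. Signals were referenced to buffer and EC80-alone controls.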
On to `Cc1cc(N2CCN(C(=O)c3ccc4c(-c5ccc(Cl)c(F)c5)cn(C(C)(C)C)c4n3)C(C)(C)C2)nc(C)c1C(=O)O` [Example 26, 6-(4-(1-(tert-butyl)-3-(4-chloro-3-fluorophenyl)-1H-pyrrolo[2,3-b]pyridine-6-carbonyl)-3,3-dimethylpiperazin-1-yl)-2,4-dimethylnicotinic acid], for which the IC50 was below 20 nM.

Turning to `CC(C)Cn1cc(-c2cccc(Cl)c2)c2ccc(C(=O)N3CCNC(=O)C3(C)C)nc21` [Example 50, 4-[3-(3-chlorophenyl)-1-isobutyl-pyrrolo[2,3-b]pyridine-6-carbonyl]-3,3-dimethyl-piperazin-2-one], the IC50 lay in the range of 20 to 10000 nM. Next, `CC1(C)CN(C(=O)c2ccc3c(-c4ccc(Cl)c(F)c4)cn(C(C)(C)C)c3n2)CCC1C(N)=O` (stereo not shown) [Example 23, 1-(1-(tert-butyl)-3-(4-chloro-3-fluorophenyl)-1H-pyrrolo[2,3-b]pyridine-6-carbonyl)-3,3-dimethylpiperidine-4-carboxamide]: 20 to 10000 nM. Next, `Cc1cc(N2CCN(C(=O)c3ccc4c(-c5ccc(Cl)c(F)c5)cn(C(C)(C)C)c4n3)[C@H](C)C2)nc(C)c1C(=O)O` [Example 130, (R)-6-(4-(1-(tert-butyl)-3-(4-chloro-3-fluorophenyl)-1H-pyrrolo[2,3-b]pyridine-6-carbonyl)-3-methylpiperazin-1-yl)-2,4-dimethylnicotinic acid]: 20 to 10000 nM; `CN1CCN(C(=O)c2ccc3c(-c4ccc(Cl)c(F)c4)cn(C(C)(C)C)c3n2)C(C)(C)C1=O` [Example 2, 4-(1-(tert-butyl)-3-(4-chloro-3-fluorophenyl)-1H-pyrrolo[2,3-b]pyridine-6-carbonyl)-1,3,3-trimethylpiperazin-2-one]: below 20 nM.

In the case of `CC(C)Cn1nc(-c2ccc(Cl)c(F)c2)c2ccc(C(=O)N3CCNC(=O)C3(C)C)cc21` [Example 83, 4-(3-(4-chloro-3-fluorophenyl)-1-isobutyl-1H-indazole-6-carbonyl)-3,3-dimethylpiperazin-2-one], the IC50 lay in the range of 20 to 10000 nM. Turning to `CC(C)(C)n1cc(-c2ccc(Cl)c(F)c2)c2ccc(C(=O)N3CCN(c4cn[nH]c(=O)c4)CC3)nc21` [Example 208, 5-(4-(1-(tert-butyl)-3-(4-chloro-3-fluorophenyl)-1H-pyrrolo[2,3-b]pyridine-6-carbonyl)piperazin-1-yl)pyridazin-3(2H)-one], the IC50 was above 10000 nM. For `Cc1cccc(Cn2cc(-c3ccc(Cl)c(F)c3)c3ccc(C(=O)N4CCN(c5cc(C)c(C(=O)O)c(C)n5)CC4(C)C)nc32)n1` [Example 192, 6-(4-(3-(4-chloro-3-fluorophenyl)-1-((6-methylpyridin-2-yl)methyl)-1H-pyrrolo[2,3-b]pyridine-6-carbonyl)-3,3-dimethylpiperazin-1-yl)-2,4-dimethylnicotinic acid hydrochloride], the IC50 was below 20 nM. As to `CC(C)(C)n1cc(-c2ccc(Cl)c(F)c2)c2ccc(C(=O)N3CC4(COC4)C3)nc21` [Example 10, (1-(tert-butyl)-3-(4-chloro-3-fluorophenyl)-1H-pyrrolo[2,3-b]pyridin-6-yl)(2-oxa-6-azaspiro[3.3]heptan-6-yl)methanone], the IC50 is above 10000 nM. Next, `Cc1cc(C2CCN(C(=O)c3ccc4c(-c5ccc(Cl)c(F)c5)cn(C(C)(C)C)c4n3)CC2)nc(C)c1C(=O)O` [Example 168, 6-(1-(1-(tert-butyl)-3-(4-chloro-3-fluorophenyl)-1H-pyrrolo[2,3-b]pyridine-6-carbonyl)piperidin-4-yl)-2,4-dimethylnicotinic acid]: 20 to 10000 nM; `CC(C)(C)n1cc(-c2ccc(Cl)c(F)c2)c2ccc(C(=O)N3CCNC(=O)CC3)nc21` [Example 18, 1-(1-(tertbutyl)-3-(4-chloro-3-fluorophenyl)-1H-pyrrolo[2,3-b]pyridine-6-carbonyl)-1,4-diazepan-5-one]: 20 to 10000 nM; `Cc1cc(N2CC3CN(C(=O)c4ccc5c(-c6ccc(Cl)c(F)c6)cn(C(C)(C)C)c5n4)C3C2)nc(C)c1C(=O)O` (stereo not shown) [Example 101, 6-(6-(1-(tert-butyl)-3-(4-chloro-3-fluorophenyl)-1H-pyrrolo[2,3-b]pyridine-6-carbonyl)-3,6-diazabicyclo[3.2.0]heptan-3-yl)-2,4-dimethylnicotinic acid]: 20 to 10000 nM. With `COCC(COC)n1cc(-c2ccc(Cl)c(F)c2)c2ccc(C(=O)N3CCN(c4cc(C)c(C(=O)O)c(C)n4)CC3(C)C)nc21` [Example 166, 6-(4-(3-(4-chloro-3-fluorophenyl)-1-(1,3-dimethoxypropan-2-yl)-1H-pyrrolo[2,3-b]pyridine-6-carbonyl)-3,3-dimethylpiperazin-1-yl)-2,4-dimethylnicotinic acid], the IC50 was below 20 nM. In the case of `CCn1cc(-c2ccc(Cl)c(F)c2)c2ccc(C(=O)N3CCN(c4cc(C)c(C(=O)O)c(C)n4)CC3(C)C)nc21` [Example 129, 6-(4-(3-(4-chloro-3-fluorophenyl)-1-ethyl-1H-pyrrolo[2,3-b]pyridine-6-carbonyl)-3,3-dimethylpiperazin-1-yl)-2,4-dimethylnicotinic acid], the IC50 was below 20 nM.

Regarding `Cc1cc(N2CCN(C(=O)c3ccc4c(-c5ccc(Cl)c(F)c5)c(C)n(C)c4n3)C(C)(C)C2)nc(C)c1C(=O)O` [Example 119, 6-(4-(3-(4-chloro-3-fluorophenyl)-1,2-dimethyl-1H-pyrrolo[2,3-b]pyridine-6-carbonyl)-3,3-dimethylpiperazin-1-yl)-2,4-dimethylnicotinic acid], the IC50 was in the range of 20 to 10000 nM. Next, `CC(C)Cc1nn(-c2ccc(Cl)cc2)c2ccc(C(=O)N3CCNC(=O)C3(C)C)nc12` [Example 85, 4-(1-(4-chlorophenyl)-3-isobutyl-1H-pyrazolo[4,3-b]pyridine-5-carbonyl)-3,3-dimethylpiperazin-2-one]: 20 to 10000 nM. Turning to `COC[C@@H](C)n1cc(-c2ccc(Cl)c(F)c2)c2ccc(C(=O)N3CCN(c4cc(C)c(C(=O)O)c(C)n4)CC3(C)C)nc21` [Example 140, (R)-6-(4-(3-(4-chloro-3-fluorophenyl)-1-(1-methoxypropan-2-yl)-1H-pyrrolo[2,3-b]pyridine-6-carbonyl)-3,3-dimethylpiperazin-1-yl)-2,4-dimethyinicotinic acid], the IC50 is below 20 nM. Next, `CN1CNC(=O)C12CCN(C(=O)c1ccc3c(-c4ccc(Cl)c(F)c4)cn(C(C)(C)C)c3n1)CC2` [Example 209, 8-(1-(tert-butyl)-3-(4-chloro-3-fluorophenyl)-1H-pyrrolo[2,3-b]pyridine-6-carbonyl)-1-methyl-1,3,8-triazaspiro[4.5]decan-4-one]: above 10000 nM; `CC1(C)C(=O)NCCN1C(=O)c1ccc2c(-c3ccc(Cl)c(F)c3)cn(CCn3cncn3)c2n1` [Example 40, 4-(1-(2-(1H-1,2,4-triazol-1-yl)ethyl)-3-(4-chloro-3-fluorophenyl)-1H-pyrrolo[2,3-b]pyridine-6-carbonyl)-3,3-dimethylpiperazin-2-one]: 20 to 10000 nM; `CC(C)Cc1nn(-c2ccc(Cl)c(F)c2)c2ccc(C(=O)N3CCNC(=O)C3(C)C)nc12` [Example 62, 4-(1-(4-chloro-3-fluorophenyl)-3-isobutyl-1H-pyrazolo[4,3-b]pyridine-5-carbonyl)-3,3-dimethylpiperazin-2-one]: 20 to 10000 nM. Next, `COCCn1cc(-c2ccc(Cl)c(F)c2)c2ccc(C(=O)N3CCN(c4cc(C)c(C(=O)O)c(C)n4)CC3(C)C)nc21` [Example 134, 6-(4-(3-(4-chloro-3-fluorophenyl)-1-(2-methoxyethyl)-1H-pyrrolo[2,3-b]pyridine-6-carbonyl)-3,3-dimethylpiperazin-1-yl)-2,4-dimethyinicotinic acid]: below 20 nM; `CC(C)Cn1cc(C2=CCN(C)CC2)c2ccc(C(=O)N3CCNC(=O)C3(C)C)nc21` [Example 91, 4-(1-isobutyl-3-(1-methyl-1,2,3,6-tetrahydropyridin-4-yl)-1H-pyrrolo[2,3-b]pyridine-6-carbonyl)-3,3-dimethylpiperazin-2-one hydrochloride]: above 10000 nM; `CC(C)(C)n1cc(-c2ccc(Cl)c(F)c2)c2ccc(C(=O)N3CCCNC(=O)C3)nc21` [Example 17, 4-(1-(tert-butyl)-3-(4-chloro-3-fluorophenyl)-1H-pyrrolo[2,3-b]pyridine-6-carbonyl)-1,4-diazepan-2-one]: 20 to 10000 nM.

As for `Cc1cc(N(C)[C@H]2CCN(C(=O)c3ccc4c(-c5ccc(Cl)c(F)c5)cn(C(C)(C)C)c4n3)C2)nc(C)c1C(=O)O` [Example 156, (S)-6-((1-(1-(tert-butyl)-3-(4-chloro-3-fluorophenyl)-1H-pyrrolo[2,3-b]pyridine-6-carbonyl)pyrrolidin-3-yl)(methyl)amino)-2,4-dimethylnicotinic acid], the IC50 lay within 20 to 10000 nM. Next, `COC1CC(n2cc(-c3ccc(Cl)c(F)c3)c3ccc(C(=O)N4CCNC(=O)C4(C)C)nc32)C1` (stereo not shown) [Example 28, 4-(3-(4-chloro-3-fluorophenyl)-1-(3-methoxycyclobutyl)-1H-pyrrolo[2,3-b]pyridine-6-carbonyl)-3,3-dimethylpiperazin-2-one]: below 20 nM.

By IC50 is commonly meant the concentration needed to halve the response being measured.
